The target in one test is T1, ULK1 kinase (Homo sapiens, UniProt O75385).
T1 construct: purchased Eurofins 14-959
T1 sequence (O75385 with tags, fused parts or gaps): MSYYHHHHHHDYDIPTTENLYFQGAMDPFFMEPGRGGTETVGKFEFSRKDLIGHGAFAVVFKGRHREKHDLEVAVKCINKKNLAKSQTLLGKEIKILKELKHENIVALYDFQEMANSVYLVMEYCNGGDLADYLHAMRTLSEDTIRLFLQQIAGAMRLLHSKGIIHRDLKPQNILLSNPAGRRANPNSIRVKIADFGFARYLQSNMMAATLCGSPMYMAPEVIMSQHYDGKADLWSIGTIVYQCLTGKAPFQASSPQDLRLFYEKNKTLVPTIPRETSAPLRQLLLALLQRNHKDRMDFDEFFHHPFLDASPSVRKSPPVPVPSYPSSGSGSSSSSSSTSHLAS
In words: Biochemical assay for ULK1.2 (coupled pyruvate kinase/lactate dehydrogenase assay). Conditions: 19 nM ULK1 (Eurofins), myelin basic protein, 1 mM ATP. The gist of the method:
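NADH-coupled PK/LDH read-out at 340 nm, run with 19 nM ULK1, 0.25 mg/mL myelin basic protein and 1 mM ATP. Buffer was 100 mM Tris pH 7.5 with 15 mM MgCl2 and 1% DMSO final. Monitoring was continuous for 6 hours at 30° C; rates from the 2-3 h window were converted to percent inhibition and fitted to a four-parameter curve for IC50.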

The next test deals with T2, ULK2 kinase (Homo sapiens, UniProt Q8IYT8).
T2 construct: purchased Eurofins 14-772
In words: Biochemical assay for ULK2 (coupled pyruvate kinase/lactate dehydrogenase assay). The settings on record: 9.7 nM ULK2 (Eurofins), myelin basic protein, 1 mM ATP; read-out: ULK2.2. An outline of the steps: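 Continuous PK/LDH-coupled NADH-oxidation assay with 9.7 nM ULK2, 0.25 mg/mL myelin basic protein and 1 mM ATP in Tris pH 7.5, MgCl2, DTT buffer, 1% DMSO. A340 followed 6 h at 30° C; rates from 2-3 h window converted to % inhibition, IC50 from four-parameter fit.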

Test [1] concerns phospho-Serine 318 ATG13 (pATG13), ULK kinase substrate, in A549 (KRAS mutant) cells. As to the kind of experiment: pATG13 levels of mutant KRas A549 cells after treatment with ULK inhibitors in combination with trametinib (ELISA). Conditions: with 250 nM trametinib. The format is cell-based, human. The gist of the method:
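A549 cells grown overnight were treated overnight at 37 °C with a dose response of test compound plus 250 nM trametinib (final) or DMSO. Lysates were assayed by sandwich ELISA, with total ATG13 capture and biotinylated pS318-ATG13 detection read at 450 nm minus 540 nm, giving % phosphorylation against control and IC50.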

The subject of test [2] is phospho-Serine 318 ATG13 (pATG13) in HCT-116 cells. In words: pATG13 levels of mutant KRas HCT-116 cells after treatment with ULK inhibitors in combination with trametinib (ELISA). It is filed as cell-based, human. As to the method:
Example 179. pATG13 Levels of Mutant KRas HCT-116 Cells after Treatment with ULK Inhibitors in Combination with Trametinib
(§1) HCT-116 human colon cancer cells (10000 cells/well) were added to a 384-well tissue-culture treated plate in 50 μL of pre-warmed DMEM medium supplemented with 10% characterized fetal bovine serum (Invitrogen, Carlsbad, Calif.), 100 units/mL penicillin G, and 100 μg/mL streptomycin and allowed to grow overnight at 37° C., 5% CO2, and 95% humidity. The following day, 10 μL of media containing trametinib or DMSO as a control was added to wells. The final concentration of trametinib in wells was 250 nM. A dose response of a test compound (0.6 μL per well) was added. DMSO (0.6 μL) was added to control wells. The plate was briefly shaken to mix wells and then incubated at 37° C. overnight. The next day, the media was aspirated and cells were washed with Dulbecco's Phosphate Buffered Saline (Gibco). Cells were lysed using MPER lysis buffer (Pierce, Rockford, Ill.) containing Halt Phosphatase and Protease Inhibitors (Pierce, Rockford, Ill.) and Phosphatase inhibitor cocktail 2 (Sigma, St. Louis, Mo.) at 4° C. for 10 minutes with shaking.
(§2) Cellular levels of phospho-Serine 318 ATG13 (pATG13) were measured via an ELISA method. Total ATG13 Antibody (Cell Signaling Cat #13273) was used to coat the wells. The plate was incubated at 4° C. overnight and washed with ELISA wash buffer (Biolegend Cat #421601). The wells were then blocked with assay diluent (Biolegend Cat #421203) for 1 hour at room temperature. Plate wells were washed with ELISA wash buffer. Cell lysate was added to wells and incubated at room temperature for 2 hours. Plate wells were washed with ELISA wash buffer. Biotinylated pS318-ATG13 antibody (Rockland Immunochemicals Cat #600-401-C49) was diluted in assay diluent and added to each well and incubated at room temperature for 1 hour. Plate wells were washed with ELISA wash buffer. Streptavidin linked to horseradish peroxidase (Thermo Fisher Cat #21140) was diluted in assay diluent and added to each well and incubated at room temperature for 1 hour. Plate wells were washed with ELISA wash buffer. High sensitivity TMB substrate (Biolegend Cat #421101) was added to each well and incubated at room temperature for 20 minutes. The reaction was stopped with 2N Sulfuric Acid. The plate was analyzed at on a plate reader measuring absorbance at 450 nm and 540 nm (background). Signal was calculated by first subtracting the background absorbance at 540 nm from the absorbance at 450 nm for each well. Next, the background corrected absorbance at 450 nm from blank wells was subtracted from test wells. Data was compared to control wells to determine % ATG13 phosphorylation. GraphPad Prism was used to calculate IC50 values.

Test [3] deals with phospho-Serine 318 ATG13 (pATG13) in MiaPaCa-2 cells. As to the kind of experiment: pATG13 levels of mutant KRas MiaPaCa-2 cells after treatment with ULK inhibitors in combination with trametinib (ELISA). It is filed as cell-based, human. Here is the method: Example 178. pATG13 Levels of Mutant KRas MiaPaCa-2 Cells after Treatment with ULK Inhibitors in Combination with Trametinib
as §1, with “MiaPaCa-2” for “HCT-116”, “pancreatic” for “colon”, “G,” for “G, and”, “streptomycin, and 2.5% Horse Serum” for “streptomycin”
as §2

IC50 data for 4 compounds are collected here from US11518758B2, “Heteroarylaminopyrimidine amide autophagy inhibitors and methods of use thereof” (Deciphera Pharmaceuticals, LLC, priority 2019, dated 2022).

T2 sequence (Q8IYT8 with tags, fused parts or gaps): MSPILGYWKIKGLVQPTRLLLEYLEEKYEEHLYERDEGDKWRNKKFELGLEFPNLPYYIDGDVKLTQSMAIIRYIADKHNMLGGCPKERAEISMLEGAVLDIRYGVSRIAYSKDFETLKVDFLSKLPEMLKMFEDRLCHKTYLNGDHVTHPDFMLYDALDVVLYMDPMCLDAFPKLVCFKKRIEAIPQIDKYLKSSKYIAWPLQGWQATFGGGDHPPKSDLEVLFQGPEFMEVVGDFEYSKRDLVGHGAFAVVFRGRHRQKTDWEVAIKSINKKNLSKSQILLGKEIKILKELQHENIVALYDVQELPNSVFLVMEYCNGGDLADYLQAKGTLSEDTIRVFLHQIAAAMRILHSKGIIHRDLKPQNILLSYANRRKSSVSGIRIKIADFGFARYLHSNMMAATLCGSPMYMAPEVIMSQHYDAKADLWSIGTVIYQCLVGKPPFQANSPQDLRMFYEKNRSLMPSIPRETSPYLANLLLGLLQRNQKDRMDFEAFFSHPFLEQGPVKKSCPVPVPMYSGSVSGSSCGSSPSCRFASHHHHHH

Regarding `O=C1CCCCN1CCCNc1nc(Nc2cnn(C3CCNCC3)c2)ncc1C(F)(F)F` [Example 7], the IC50 against ULK1 kinase lay within 1 to 25 nM; on ULK2 kinase it was 1 to 25 nM; in test [1] it was 10 to 100 nM; in test [2] it was 100 to 300 nM.

Take `CCc1nn(C2CCN(C)CC2)cc1Nc1ncc(C(F)(F)F)c(NCCCN2CCCOCC2=O)n1` [Example 109]: the IC50 on ULK1 kinase fell in the range of 25 to 100 nM; in test [1] it was 100 to 300 nM; in test [3], 100 to 300 nM; in test [2], 10 to 100 nM.

On to `Cc1nn(C2CCNCC2)cc1Nc1ncc(C(F)(F)F)c(NCCCN2CCCCC2=O)n1` [Example 14], for which the IC50 at ULK1 kinase was 1 to 25 nM; at ULK2 kinase it was 1 to 25 nM; in test [1], 300 to 600 nM; in test [2] it was 10 to 100 nM.

As to `CCc1nn(C2CCNCC2)cc1Nc1ncc(C(F)(F)F)c(NCCCN2CCCCC2=O)n1` [Example 40], the IC50 lay in the range of 1 to 25 nM against ULK1 kinase, 300 to 600 nM in test [1], 10 to 100 nM in test [3] and 10 to 100 nM in test [2].
